Where only a bound is given, the exact number is not on record here.

In general, IC50 refers to the concentration at which inhibition is half-maximal.

The test system of test [1] is HCV (1b) replicon, Huh-ET cells. The test is described as follows: Cell-based luciferase reporter HCV (1b) RNA replication assay. The following applies: Hepatitis C virus; for EC50: HCV genotype 1b replicon, read-out: EC50_1b; for IC50: sub-genomic replicon 1b cell line. The source says: Cell-Based Luciferase Reporter HCV (Ib) RNA Replication Assay Cell Culture
Replicon cell lines Huh-5.2 are derived from the Huh-7 hepatocarcinoma cell line are maintained in culture as generally described in Krieger, N; Lohmann, V; Bartenschlager, R. Enhancement of hepatitis C virus RNA replication by cell culture-adaptive mutations. J. Virol. 2001, 75, 4614-4624. The Huh-5.2 cells contain the highly cell culture-adapted replicon I389luc-ubi-neo/NS3-3′/5.1 construct that carries, in addition to the neomycin gene, an integrated copy to the firefly luciferase gene (Krieger, N; Lohmann, V; Bartenschlager, R. Enhancement of hepatitis C virus RNA replication by cell culture-adaptive mutations. J. Virol. 2001, 75, 4614-4624). This cell line allows measurement of HCV RNA replication and translation by measuring luciferase activity. It has been previously shown that the luciferase activity tightly follows the replicon RNA level in these cells (Krieger, N; Lohmann, V; Bartenschlager, R. Enhancement of hepatitis C virus RNA replication by cell culture-adaptive mutations. J. Virol. 2001, 75, 4614-4624). The Huh-ET cell line has the same features as those mentioned for Huh-5.2 cell line, except that ET cells are more robust and contain an adaptative mutation in the HCV NS4B gene instead of NS5A. Both cell lines are maintained in cultures at a sub-confluent level (<85%) as the level of replicon RNA is highest in actively proliferating cells. The culture media used for cell passaging consist of DMEM (Gibco BRL Laboratories, Mississauga, ON, Canada) supplemented with 10% foetal bovine serum with 1% penicilin/streptomycin, 1% glutamine, 1% sodium pyruvate, 1% non-essential amino acids, and 180 μg/ml of G418 final concentration. Cells are incubated at 37° C., in an atmosphere of 5% CO2 and passaged twice a week to maintain sub-confluence.
Approximately 3000 viable Huh-ET cells (100 μl) are plated per well in a white opaque 96-well microtiter plate. The cell culture media used for the assay is the same as described above except that it contains no G418 and no phenol red. After an incubation period of 3-4 hours at 37° C. in a 5% CO2 incubator, compounds (100 μl) are added at various concentrations. Cells are then further incubated for 4 days at 37° C. in a 5% CO2 incubator. Thereafter, the culture media is removed and cells are lysed by the addition of 95 μL of the luciferase buffer (luciferin substrate in buffered detergent). Cell lysates are incubated at room temperature and protected from direct light for at least 10 minutes. Plates are read for luciferase counts using a luminometer (Wallac MicroBeta Trilux, Perkin Elmer™, MA, USA).
Curves are fitted to data points using nonlinear regression analysis, and IC50s are interpolated from the resulting curve using GraphPad Prism software, version 2.0 (GraphPad Software Inc., San Diego, Calif., USA).
On the technique in general: A reporter such as luciferase makes a cellular process visible.

The test system of test [2] is sub-genomic HCV replicon of genotype 1a (cell line W11.8). The test is described as follows: Activity determination using the ELISA and the sub-genomic replicon 1a cell line. It counts as cell-based. The following applies: Hepatitis C virus. The source says:
Activity Determination Using the ELISA and the Sub-Genomic Replicon 1a Cell Line
The cell line W11.8 containing the sub-genomic HCV replicon of genotype 1a is used to determine the potency of the drugs. The RNA replication in presence of different drug concentrations is indirectly measured in this cell line by the level of NS5A protein content upon drug treatment for four days. It is shown that the level of the NS5A protein correlates well with the level of HCV RNA in the replicon cell line. Cells are split twice a week in order to keep the confluence state below 85% of the culture flask surface area. The culture media used for cell passaging consists of DMEM-10% foetal bovine serum with 100 UI/mL penicillin, 100 μg/mL streptomycin, 2 mM glutamine, 1 mM sodium pyruvate, non-essential amino acids (1×) and 600 μg/mL of G418 final concentrations. Monolayer of the W11.8 cells is trypsinized and cells are counted. […] Then, substrate solution (100 μl, SuperSignal ELISA Pico Chemiluminescent Substrate, Fisher Cat. No. 37069) is added in each well and plates are incubated 60 minutes at room temperature prior to reading the luminescence (relative light units) on the Analyst HT plate reader. The percentage of inhibition at each drug concentration tested (in duplicate) is calculated.
A general note: ELISA stands for enzyme-linked immunosorbent assay.

Take `COC(=O)N[C@H](C(=O)N1C[C@@H](C)C[C@H]1c1ncc(-c2ccc(-c3ccc(-c4ccc5nc([C@@H]6C[C@H](C)CN6C(=O)[C@@H](NC(=O)OC)C(C)C)oc5c4)cc3)cc2)[nH]1)C(C)C` [Compound 1]: in test [1], the EC50 was no more than 5 nM.

With `COC(=O)N[C@H](C(=O)N1C[C@@H](C)C[C@H]1c1cc2ccc(-c3ccc(-c4ccc(-c5cnc([C@@H]6C[C@H](C)CN6C(=O)[C@@H](NC(=O)OC)C(C)C)[nH]5)cc4)cc3)cc2[nH]1)C(C)C` [Compound 2], the EC50 in test [1] is no more than 5 nM. On the same count and under the same terms, with `COC(=O)N[C@H](C(=O)N1C[C@@H](C)C[C@H]1c1ncc(-c2ccc(-c3ccc(-c4ccc5sc([C@@H]6C[C@H](C)CN6C(=O)[C@@H](NC(=O)OC)C(C)C)nc5c4)cc3)cc2)[nH]1)C(C)C` [Compound 3] the figure was no more than 5 nM.

Turning to `COC(=O)N[C@H](C(=O)N1[C@@H](C)CC[C@H]1c1nc(-c2ccc(-c3ccc(-c4cnc5[nH]c([C@@H]6CC[C@H](C)N6C(=O)[C@@H](NC(=O)OC)C(C)C)nc5c4)cc3)cc2)c[nH]1)C(C)C` [Compound 4], the EC50 in test [1] is no more than 5 nM. In addition, the IC50 came to 0.07 nM in test [1] and 0.025 nM in test [2]. As for `COC(=O)N[C@H](C(=O)N1C[C@@H](C)C[C@H]1c1cc2cc(-c3ccc(-c4ccc(-c5cnc([C@@H]6C[C@H](C)CN6C(=O)[C@@H](NC(=O)OC)C(C)C)[nH]5)cc4)cc3)ccc2[nH]1)C(C)C` [Compound 5], in test [1], the EC50 was no more than 5 nM. On the same count and under the same terms, with `COC(=O)N[C@H](C(=O)N1C(c2nc3cc(-c4ccc(-c5ccc(-c6c[nH]c([C@@H]7CC[C@H](C)N7C(=O)[C@@H](NC(=O)OC)C(C)C)n6)cc5)cc4)cnc3[nH]2)CC[C@@H]1C)C(C)C` (stereo partly drawn) [Compound 6] the figure was no more than 5 nM. The same measure, in the same setting: the same measure for `COC(=O)N[C@H](C(=O)N1C[C@@H](C)C[C@H]1c1nc2ccc(-c3cc4sc(-c5c[nH]c([C@@H]6C[C@H](C)CN6C(=O)[C@@H](NC(=O)OC)C(C)C)n5)cc4s3)cn2n1)C(C)C` [Compound 15]: no more than 5 nM. For the compound `COC(=O)N[C@H](C(=O)N1C[C@@H](C)C[C@H]1c1nc(-c2ccc(-c3ccc(-c4cnc5[nH]c([C@@H]6C[C@H](C)CN6C(=O)[C@@H](NC(=O)OC)C(C)C)nc5c4)cc3)cc2)c[nH]1)C(C)C` [Compound 16, Methyl N-[(1S)-1-[(2S,4S)-2-[4-[4-[4-[2-[(2S,4S)-1-[(2S)-2-(methoxycarbonylamino)-3-methyl-butanoyl]-4-methyl-pyrrolidin-2-yl]-3H-imidazo[4,5-b]pyridin-6-yl]phenyl]phenyl]-1H-imidazol-2-yl]-4-methyl-pyrrolidine-1-carbonyl]-2-methyl-propyl]carbamate], the EC50 in test [1] is no more than 5 nM. In addition, the IC50 in test [1] and in test [2] was 0.01 nM throughout.

(Values after patent US20130102629A1, “ANALOGUES FOR THE TREATMENT OR PREVENTION OF FLAVIVIRUS INFECTIONS” (VERTEX PHARMACEUTICALS INCORPORATED, priority 2010, published 2013).)
